# Results as given in patent US20250026765A1, “SPIROHETEROCYCLE DERIVATIVE HAVING SEROTONIN RECEPTOR BINDING ACTIVITY” (Shionogi & Co., Ltd., priority 2021, published 2025).
# pKi: −log10 of the molar value.
# Columns and labels:
# [1] = target: human recombinant 5-HT2A receptor (Homo sapiens (Human), UniProt P28223); assay: 5-HT2A receptor binding inhibition test ([3H]-Ketanserin); settings: Jump-In HEK cell membrane, 25° C. 1.5 hours, read-out: h-5-HT2A Ki
# Description: Test Example 1: 5-HT2A Receptor Binding Inhibition Test
# (§1) (Each Experimental Condition)
# Cell membrane: 15 μg of Jump-In HEK cell membrane (expressing human recombinant 5-HT2A receptor) per well
# (§2) Assay buffer: Tris-HCl 50 mmol/L (pH 7.4) containing NaCl 120 mmol/L, MgCl2·6H2O 1 mmol/L, KCl 5 mmol/L, 0.1% BSA and CaCl2 2 mmol/L
# Radioactive ligand: [^3H]-Ketanserin with a final concentration of around Kd value calculated by the following method
# Non-specific ligand: Serotonin HCl with a final concentration of 500 μmol/L
# (§3) The Kd value is calculated when the lot of cell membrane is changed. In advance, 0.5 μL of a 1 mmol/L compound for non-specific binding calculation dissolved in DMSO or DMSO is dispensed into a microplate, and the cell membrane is diluted with an Assay buffer. The radioactive ligand solution is serially diluted and the count is confirmed with a liquid scintillator. Assay buffer containing diluted cell membrane is dispensed into a microplate at 50 μL/well. Then, the radioactive ligand solution is dispensed into a microplate at 50 μL/well, and the plate is sealed. It is allowed to stand at room temperature (25° C.) for 1.5 hours. During this period, 50 mmol/L Tris-HCl (pH 7.4) is dispensed into a GF/B UniFilter plate at 50 μL/well and allowed to stand at 4° C. for 1 hour or longer. After that, filtration is performed with Cell harvester (PerkinElmer). The radioactive ligand solution is dispensed into an empty well of the GF/B UniFilter plate at 10 μL/well. After the GF/B UniFilter plate is dried at room temperature, MicroScinti 20 is dispensed into the GF/B UniFilter plate at 50 μL/well to seal the plate. The GF/B UniFilter plate is allowed to stand overnight at room temperature. The radioactivity of [^3H]-Ketanserin bound to the 5-HT2A receptor is measured using Microbeta2 (PerkinElmer) at a measurement time of 1 min/well. The Saturation curve is drawn from the measured value, and the Kd value is calculated from the slope of the Scatchard Plot.
# (§4) (Binding Test of the Compound According to the Present Invention)
# In advance, 0.5 μL of the compound solution dissolved in DMSO is dispensed into a microplate, and the cell membrane and the hot ligand are diluted with Assay buffer, respectively. Then, the Assay buffer containing the diluted cell membrane is dispensed into a microplate at 50 μL/well. Then, the radioactive ligand solution is dispensed into a microplate at 50 μL/well, and the plate is sealed. Then, it is allowed to stand at room temperature (25° C.) for 1.5 hours. During this period, 50 mmol/L Tris-HCl (pH 7.4) is dispensed into a GF/B UniFilter plate at 50 μL/well and allowed to stand at 4° C. for 1 hour or longer. After that, filtration is performed with Cell harvester (PerkinElmer). After the GF/B UniFilter plate is dried at room temperature, MicroScinti 20 is dispensed into the GF/B UniFilter plate at 50 μL/well to seal the plate. The GF/B UniFilter plate is allowed to stand overnight at room temperature. The radioactivity of [^3H]-Ketanserin bound to the 5-HT2A receptor is measured using Microbeta2 (PerkinElmer) at a measurement time of 1 min/well. The non-specific binding is calculated from the radioactivity of [^3H]-Ketanserin in the presence of 500 μmol/L Serotonin HCl which is the unlabeled ligand, and the total binding is calculated from the radioactivity of [^3H]-Ketanserin in the absence of the compound according to the present invention (Vehicle). Finally, the Ki value is calculated from the dose-response curve.
# (§5) (The binding activity of the compound according to the present invention is calculated from the following binding inhibition rate (%).)
# (§6) [formula] • a; mean cpm of non-specific binding • b; average cpm of total binding • c; cpm in the presence of the test compound
# [2] = target: human recombinant 5-HT2C receptor (Homo sapiens (Human), UniProt P28335); assay: 5-HT2C receptor binding inhibition test ([3H]-Mesulergine); settings: Jump-In HEK cell membrane, 37° C. 2 hours, read-out: h-5-HT2C Ki
# Chain of human recombinant 5-HT2C receptor (P28335 33-458): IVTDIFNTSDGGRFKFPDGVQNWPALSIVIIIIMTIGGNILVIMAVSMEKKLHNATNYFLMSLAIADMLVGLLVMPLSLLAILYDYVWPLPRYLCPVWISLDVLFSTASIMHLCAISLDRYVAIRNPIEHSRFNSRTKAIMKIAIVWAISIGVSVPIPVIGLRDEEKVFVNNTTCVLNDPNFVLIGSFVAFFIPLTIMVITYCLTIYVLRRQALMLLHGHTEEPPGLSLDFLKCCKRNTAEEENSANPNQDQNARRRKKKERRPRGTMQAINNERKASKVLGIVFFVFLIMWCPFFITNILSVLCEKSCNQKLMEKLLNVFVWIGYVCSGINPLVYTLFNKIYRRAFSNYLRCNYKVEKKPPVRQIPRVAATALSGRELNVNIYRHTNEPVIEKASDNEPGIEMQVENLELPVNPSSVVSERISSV
# Description: Test Example 2: 5-HT2C Receptor Binding Inhibition Test
# as §1
# Cell membrane: 0.5 μg of Jump-In HEK cell membrane (expressing human recombinant 5-HT2C receptor) per well
# as §2
# Radioactive ligand: [^3H]-Mesulergine with a final concentration of around Kd value calculated by the following method
# Non-specific ligand: Serotonin HCl with a final concentration of […]
# as §3, with “37° C.” for “room temperature (25° C.)”, “2” for “1.5”, “[^3H]-Mesulergine” for “[^3H]-Ketanserin”, “5-HT2C” for “5-HT2A”
# as §4
# In advance, 0.5 μL of the compound solution dissolved in DMSO is dispensed into a microplate, and the cell membrane and the hot ligand are diluted with Assay buffer, respectively. Then, the Assay buffer containing the diluted cell membrane is dispensed into a microplate at 50 μL/well. Then, the radioactive ligand solution is dispensed into a microplate at 50 μL/well, and the plate is sealed. Then, it is allowed to stand at 37° C. for 2 hours. During this period, 50 mmol/L Tris-HCl (pH 7.4) is dispensed into a GF/B UniFilter plate at 50 μL/well and allowed to stand at 4° C. for 1 hour or longer. After that, filtration is performed with Cell harvester (PerkinElmer). After the GF/B UniFilter plate is dried at room temperature, MicroScinti 20 is dispensed into the GF/B UniFilter plate at 50 μL/well, and the plate is sealed. The GF/B UniFilter plate is allowed to stand overnight at room temperature. The radioactivity of [^3H]-Mesulergine bound to the 5-HT2C receptor is measured using Microbeta2 (PerkinElmer) at a measurement time of 1 min/well. The non-specific binding is calculated from the radioactivity of […] in the presence of 500 μmol/L Serotonin HCl which is the unlabeled ligand, and the total binding is calculated from the radioactivity of [^3H]-Mesulergine in the absence of the compound according to the present invention (Vehicle). Finally, the Ki value is calculated from the dose-response curve.
# as §5, §6
# Chain of human recombinant 5-HT2A receptor (P28223 whole entry): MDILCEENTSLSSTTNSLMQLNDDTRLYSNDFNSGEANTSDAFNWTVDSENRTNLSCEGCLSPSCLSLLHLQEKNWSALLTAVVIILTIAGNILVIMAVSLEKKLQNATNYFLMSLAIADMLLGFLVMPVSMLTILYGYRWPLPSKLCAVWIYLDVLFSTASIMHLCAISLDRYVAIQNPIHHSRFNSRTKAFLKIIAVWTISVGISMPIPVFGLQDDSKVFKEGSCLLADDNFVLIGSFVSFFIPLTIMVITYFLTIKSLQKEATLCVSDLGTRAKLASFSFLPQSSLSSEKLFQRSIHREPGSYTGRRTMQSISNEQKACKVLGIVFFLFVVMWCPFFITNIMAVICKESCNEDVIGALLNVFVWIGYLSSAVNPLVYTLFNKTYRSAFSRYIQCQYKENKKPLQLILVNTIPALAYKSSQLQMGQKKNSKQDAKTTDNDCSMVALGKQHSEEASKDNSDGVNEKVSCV
pKi [1],pKi [2],SMILES
> 8.00,> 8.00,Cc1nc(CN(Cc2ccc(OCC(C)C)cc2)C2=NO[C@@]3(CCNC[C@H]3F)N2)co1 (racemic) [Compound I-085]
6.30 to 7.00,–,COc1ccc(CNC2=NOC3(CCN(C)CC3)N2Cc2ccc(F)cc2)cc1 [Compound I-006]
6.30 to 7.00,6.30 to 7.00,CCCOc1ccc(CNC2=NOC3(CCN(C)CC34CC4)N2Cc2ccn(C)n2)cc1 (racemic) [Compound I-040]
> 8.00,7.00 to 8.00,COc1ccc(CC2=NOC3(CCN(C)CC34CC4)N2Cc2cc(C)n(C)n2)cc1 (racemic) [Compound I-034]
7.00 to 8.00,6.30 to 7.00,"CCCOc1ccc(CC2=NOC3(CCN(C)CC34CC4)N2Cc2ccn(C)n2)cc1 (single isomer, unassigned) [Compound I-045]"
> 8.00,> 8.00,CCCOc1ccc(CC2=NOC3(CCNCC34CC4)N2Cc2ccn(C)n2)cc1 (racemic) [Compound I-037]
> 8.00,7.00 to 8.00,CC(C)COc1ccc(CN(Cc2ccc(F)cn2)C2=NC(=O)C3(CCN(C)CC3)N2)cc1 [Compound I-030]
7.00 to 8.00,7.00 to 8.00,CC(C)COc1ccc(CN(Cc2cocn2)C2=NOC3(CCN(C)CC3)N2)cc1 [Compound I-031]
7.00 to 8.00,6.30 to 7.00,CC(C)COc1ccc(CCC2=NOC3(CCN(C)CC3)N2Cc2ccc(F)cc2)cc1 [Compound I-008]
> 8.00,7.00 to 8.00,Cc1coc(CN(Cc2ccc(OCC(C)C)cc2)C2=NOC3(CCN(C)CC3)N2)n1 [Compound I-054]
> 8.00,6.30 to 7.00,CC(C)COc1ccc(CN(Cc2cn(C)cn2)C2=NOC3(CCN(C)CC3)N2)cc1 [Compound I-019]
> 8.00,> 8.00,"CCCOc1ccc(CC2=NOC3(CCN(C)CC34CC4)N2Cc2ccn(C)n2)cc1 (single isomer, unassigned) [Compound I-044]"
7.00 to 8.00,7.00 to 8.00,Cc1cnc(CN(Cc2ccc(OCC(C)C)cc2)C2=NC(=O)C3(CCN(C)CC3)N2)nc1 [Compound I-061]
7.00 to 8.00,7.00 to 8.00,COc1ccc2oc(CN(Cc3coc(C)n3)C3=NOC4(CCN(C)CC4)N3)nc2c1 [Compound I-088]
7.00 to 8.00,7.00 to 8.00,Cc1cccc(CN(Cc2ccc(OCC(C)C)cc2)C2=NOC3(CCN(C)CC3)N2)n1 [Compound I-013]
> 8.00,7.00 to 8.00,Cc1ccc(CN(Cc2ccc(OCC(C)C)cc2)C2=NC(=O)C3(CCN(C)CC3)N2)nc1 [Compound I-062]
–,7.00 to 8.00,CC(C)COc1ccc(CN(Cc2ccc(F)cc2)C2=NOC3(CCN(C)CC3)N2)cc1 [Compound I-060]
7.00 to 8.00,> 8.00,Cc1nc(CN(Cc2ccc(OCC(C)C)cc2)C2=NOC3(CCN(C)CC3)N2)no1 [Compound I-018]
6.30 to 7.00,–,CN1CCC2(CC1)NC(N(CC(=O)Nc1ccc(Cl)cc1)Cc1ccn(C)n1)=NO2 [Compound I-056]
7.00 to 8.00,–,Cc1ccc(CN(Cc2ccc(OCC(C)C)cc2)C2=NC(=O)C3(CCN(C)CC3)N2)cn1 [Compound I-059]

SMILES,pKi [1],pKi [2]
CCCCOc1ccc(CN(Cc2coc(C)n2)C2=NOC3(CCN(C)CC3)N2)c(Br)c1 [Compound I-092],> 8.00,> 8.00
CCCOc1ccc(CN(Cc2coc(C)n2)C2=NOC3(CCN(C)CC3)N2)c(Cl)c1 [Compound I-126],> 8.00,> 8.00
Cc1nc(CN(Cc2ccc(OCC(F)(F)F)cc2)C2=NOC3(CCN(C)CC3)N2)co1 [Compound I-047],> 8.00,> 8.00
CN1CCC2(CC1)NC(N(Cc1coc(C3CC3)n1)Cc1ccc(OCC(F)(F)F)cc1F)=NO2 [Compound I-108],> 8.00,> 8.00
CN1CCC2(CC1)NC(N(Cc1ccc(OCC(F)(F)F)cc1)Cc1coc(CF)n1)=NO2 [Compound I-132],> 8.00,> 8.00
Cc1ccc(CN(Cc2ccc(OCC(C)C)cc2)C2=NOC3(CCN(C)CC3)N2)nc1 [Compound I-016],> 8.00,> 8.00
CCc1nc(CN(Cc2ccc(OCC(C)C)cc2)C2=NOC3(CCN(C)CC3)N2)co1 [Compound I-068],> 8.00,> 8.00
CC(C)COc1ccc(CN(Cc2ccc(F)cc2)C2=NC(=O)C3(CCNCC3)N2)cc1 [Compound I-022],> 8.00,> 8.00
CCCc1ccc(CN(Cc2coc(C)n2)C2=NOC3(CCN(C)CC3)N2)cc1F [Compound I-110],> 8.00,> 8.00
Cc1nc(CN(Cc2ccc(OCC(C)C)cc2F)C2=NOC3(CCNCC3)N2)co1 [Compound I-131],> 8.00,> 8.00
CCCCOc1ccc(CN(Cc2cnn(C)n2)C2=NOC3(CCN(C)CC3)N2)c(F)c1 [Compound I-112],> 8.00,> 8.00
CN1CCC2(CC1)NC(N(Cc1cnn(C)n1)Cc1ccc(OCC(F)(F)C(F)(F)F)cc1F)=NO2 [Compound I-103],> 8.00,> 8.00
Cc1nc(CN(Cc2ccc(Cc3ccccc3)cc2)C2=NOC3(CCN(C)CC3)N2)co1 [Compound I-119],> 8.00,> 8.00
CC(C)COc1ccc(CN(Cc2coc(C(F)F)n2)C2=NOC3(CCN(C)CC3)N2)cc1 [Compound I-050],> 8.00,> 8.00
